Test results reported in the supplement of paper PMC4862054.

Columns and labels:
BT-474 [1] = experiment: normalised viability (% of control), CellTiter-Blue; higher = more viable cells (about 100 = DMSO control); settings: 100 nM; incubation time: 72 h
Description: (§1)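 DSRT, CellTiter-Blue viability, 72 h incubation. Signal is normalised to DMSO and benzethonium chloride controls. Value is the normalised response at dose 3.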

DU-4475 [2] = experiment: as above; settings: 10 nM; incubation time: 72 h
Description: as §1

HCC1599 [3] = experiment: as above; settings: 100 nM; incubation time: 72 h
Description: as §1

MDA-MB-453 [4] = experiment: as above; settings: 10 nM; incubation time: 72 h
Description: as §1

MFM-223 [5] = experiment: as above; settings: 100 nM; incubation time: 72 h
Description: as §1

SK-BR-3 [6] = experiment: as above; settings: 100 nM; incubation time: 72 h
Description: as §1

BT-474 [7] = experiment: normalised viability (% of control), CellTiter-Blue; higher = more viable cells (about 100 = DMSO control); settings: incubation time: 72 h
Procedure, shortened: (§2)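 After 72 h on compound-loaded 384-well plates, breast cancer cell lines received 2.5 µl CellTiter-Blue reagent for 2 h at 37 °C. Fluorescence at 560/590 nm was scaled per plate so that vehicle was 100 and a positive kill control was 0. The value stands for normalised viability at a single listed concentration of the series.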

BT-549 = experiment: as above; settings: incubation time: 72 h
Procedure, shortened: as §2

CAL-120 = experiment: as above; settings: incubation time: 72 h
Procedure, shortened: as §2

CAL-148 = experiment: as above; settings: incubation time: 72 h
Procedure, shortened: as §2

CAL-51 = experiment: as above; settings: incubation time: 72 h
Procedure, shortened: as §2

CAL-85-1 = experiment: as above; settings: incubation time: 72 h
Procedure, shortened: as §2

DU-4475 [8] = experiment: as above; settings: incubation time: 72 h
Procedure, shortened: as §2

HCC1143 = experiment: as above; settings: incubation time: 72 h
Procedure, shortened: as §2

HCC1599 [9] = experiment: as above; settings: incubation time: 72 h
Procedure, shortened: as §2

HCC1937 = experiment: as above; settings: incubation time: 72 h
Procedure, shortened: as §2

HDQ-P1 = experiment: as above; settings: incubation time: 72 h
Procedure, shortened: as §2

Hs578T [10] = experiment: as above; settings: incubation time: 72 h
Procedure, shortened: as §2

MDA-MB-231 = experiment: as above; settings: incubation time: 72 h
Procedure, shortened: as §2

MDA-MB-436 = experiment: as above; settings: incubation time: 72 h
Procedure, shortened: as §2

MDA-MB-453 [11] = experiment: as above; settings: incubation time: 72 h
Procedure, shortened: as §2

MDA-MB-468 = experiment: as above; settings: incubation time: 72 h
Procedure, shortened: as §2

MFM-223 [12] = experiment: as above; settings: incubation time: 72 h
Procedure, shortened: as §2

SK-BR-3 [13] = experiment: as above; settings: incubation time: 72 h
Procedure, shortened: as §2

Hs578T [14] = experiment: drug sensitivity score (DSS), CellTox Green (DSS (AUC-based score)); higher = stronger drug effect (viability inhibition or cytotoxicity); extreme values may be limits of the assay; settings: incubation time: 72 h
Procedure, shortened: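 After 72 h of incubation in 384-well plates with compound at 5 concentrations (10-fold steps, 10,000-fold range set per compound), breast cancer cell lines seeded in 20 µl suspension were read first for CellTox Green fluorescence at 485/520 nm. CellTiter-Glo luminescence was measured next, after 10 min at room temperature. Normalisation on each plate used 0.1 % DMSO and a positive kill control, and the drug sensitivity score was computed from the area under the fitted dose-response curve.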

N#CC[C@H](C1CCCC1)n1cc(-c2ncnc3[nH]ccc23)cn1 [Ruxolitinib]
Settings	drug sensitivity score	normalised viability [%]
BT-474 [1]	–	107
DU-4475 [2]	–	101
HCC1599 [3]	–	99.3
Hs578T [14]	0	–
MDA-MB-453 [4]	–	93
MFM-223 [5]	–	93.2
SK-BR-3 [6]	–	85.1

normalised viability [%]
Settings	3 nM	10 nM	30 nM	100 nM	1000 nM	10000 nM
BT-474 [7]	–	108	–	–	103	119
BT-549	–	86.3	–	–	90.9	73.4
CAL-51	84.6	–	97	97.4	–	–
CAL-85-1	114	–	90.4	110	–	–
CAL-120	–	102	–	–	99	94.5
CAL-148	92	–	82.4	94.1	–	–
DU-4475 [8]	103	–	106	121	–	–
HCC1143	–	107	–	–	107	98.2
HCC1599 [9]	–	114	–	–	102	91.1
HCC1937	–	114	–	–	94.1	74
HDQ-P1	84	–	83.6	104	–	–
Hs578T [10]	–	108	–	–	104	93.5
MDA-MB-231	–	72.7	–	–	101	110
MDA-MB-436	–	93.2	–	–	112	102
MDA-MB-453 [11]	86.8	–	89.2	93.9	–	–
MDA-MB-468	–	90.5	–	–	104	100
MFM-223 [12]	–	101	–	–	98.6	75.3
SK-BR-3 [13]	–	95.4	–	–	87.3	103
